Source: US20090305993A1, “METHODS AND COMPOSITION FOR THE TREATMENT OF GASTROINTESTINAL DISORDERS” (IRONWOOD PHARMACEUTICALS, INC., priority 2006, published 2009)
Where a SMILES comes first, the peptide text is derived from it. Bridges are numbered along the chain shown (N, C = ends).

Legend:
CD1 female mice = experiment: murine gastrointestinal transit assay, chronic dosing; assay type: in vivo, mouse; settings: oral, daily for 5 days; SEQ ID NO:3 0.06 or 0.25 mg/kg; FIG. 4c
Description: The identical experiment was performed to determine if SEQ ID NO:3 is effective in a chronic dosing treatment regimen. Briefly, 8 week old CD1 female mice are dosed orally once a day for 5 days with either SEQ ID NO:3 (0.06 mg/kg or 0.25 mg/kg in 20 mM Tris pH 7.5) or vehicle alone (20 mM Tris pH 7.5). On the 5th day, a GIT assay is performed identical to that above except 200 μl of a 10% charcoal solution is administered. […] The results are shown side by side with acute dosing (1 day).

WT and GC-C KO mice = experiment: TNBS visceral hypersensitivity model in WT and GC-C KO mice; assay type: in vivo, mouse; settings: oral 0.01 μg/kg, FIG. 7d
Description: TNBS induced visceral hypersensitivity was assessed in WT and GC-C KO mice. Two groups (WT and GC-C KO) of male mice (22-25 g) were surgically prepared for electromyographic (EMG) recordings. Three electrodes were implanted in the striated muscles of the abdomen for EMG recording of abdominal contractions. Colorectal distension (CRD) was performed with a balloon inflated by 10s steps of 0.02 ml from 0 to 0.12 ml. Under basal conditions mice were submitted to control CRD (time 0) followed by oral administration of SEQ ID NO:3 (0.01 and 0.3 μg/kg) or vehicle only (distilled water, 1 ml) at 3 hours. One hour post dosing the CRD procedure was repeated. Abdominal EMG contractile response to colorectal distension in basal conditions in both WT and GC-C KO mice (12-14 mice per group) was determined in the absence of vehicle and SEQ ID NO:3, and the mean+/−standard error of the mean (SEM) is graphically depicted in FIG. 7c.
For TNBS induced visceral hypersensitivity conditions, mice were submitted to control CRD (time 0) and TNBS (20 mg/kg) was administered at 3 days. […] The effect of SEQ ID NO:3 ([…]) on abdominal response to colorectal distension after TNBS in WT and GC-C KO mice (12-14 per group) at a volume distension of […] was determined and the mean+/−standard error of the mean (SEM) is graphically depicted in FIG. 7d.

[1] = oral bioavailability in mice, radioimmunoassay (RIA); settings: female, CD-1, mouse, in vivo
Description: Oral bioavailability was also determined using a radioimmunoassay (RIA) detection method. Female CD-1 mice (Charles River, Wilmington, Mass.) weighing approximately 25 g (7-8 weeks old) or female CD rats (Charles River, Wilmington, Mass.) weighing approximately 153 g were included in this study. Monoclonal antibody, 20C1 (Brandwein et al. 1985 Infect Immun. 47:242-246), which recognizes SEQ ID NO:7 and 1251 labeled—SEQ ID NO:7, a labeled tracer, were used in these experiments. The labeled tracer was purified by HPLC using a Waters C-18u Bondapak® column (25 cm) previously equilibrated with 10 mM ammonium acetate pH 5.8. […] Blood was drawn from all dosed animals by retro-orbital eye bleeding at specific intervals and test compound levels were analyzed by radioimmunoassay (RIA). […] Radioactivity was measured in a LS 6500 scintillation counter (Beckman-Coulter). The binding efficiency is defined as the percent radioactivity in the B0 sample compared to the input counts. The percent bound in each sample was calculated by the equation: […]
A standard curve was prepared by plotting % B/B0 as a function of the log SEQ ID NO:3 concentration. […] The area under the curve from T=0 to 4 hours (AUC0-4h) was calculated by the software for both p.o. and i.v. dosed animals. […] Oral Bioavailability (F) is calculated using the equation: […]

For `C[C@@H]1NC(=O)[C@@H]2CCCN2C(=O)[C@H](CC(N)=O)NC(=O)[C@@H]2CSSC[C@H](N)C(=O)N[C@H]3CSSC[C@H](NC1=O)C(=O)N[C@@H]([C@@H](C)O)C(=O)NCC(=O)N[C@H](C(=O)N[C@@H](Cc1ccc(O)cc1)C(=O)O)CSSC[C@H](NC(=O)[C@H](Cc1ccc(O)cc1)NC(=O)[C@H](CCC(=O)O)NC3=O)C(=O)N2` [SEQ ID NO:3] (H-CCEYCCNPACTGCY-OH; disulfide 1-6, 2-10, 5-13; N-terminus and C-terminus assumed), the “gastrointestinal motility upon chronic dosing” value (CD1 female mice) was “effective”, the “TNBS induced hypersensitivity to CRD” value (WT and GC-C KO mice; GC-C KO mice) was “A similar effect was not observed” and the “TNBS induced hypersensitivity to CRD” value (WT and GC-C KO mice; WT mice) was “reduces the TNBS induced hypersensitivity to CRD”. For the same molecule, the AUC ([1]; 8 mg/kg oral, read-out: AUCp.o.,(0-4h)) was at most 11.5 ng·h/mL and the bioavailability ([1]; oral, 8 mg/kg, over 4 hours, read-out: bioavailability (F)) was at most 0.04%.
